Values of other authors as cited in patent publication US20090035370A1, “DOSAGE FORM AND METHOD OF USE” (DRUGTECH CORPORATION, priority 2007, published 2009).
Read-outs that look alike come from different tables or passages of the source.

Experiments:
[1] = administered orally
D2 receptor [2] = target: T1, D2 receptor (Homo sapiens, UniProt P14416); conditions: patients receiving 300-600 mg/day
D2 receptor [3] = target: T1, D2 receptor; conditions: PET
D2 receptor [4] = target: T1, D2 receptor

T1 sequence (P14416 whole entry): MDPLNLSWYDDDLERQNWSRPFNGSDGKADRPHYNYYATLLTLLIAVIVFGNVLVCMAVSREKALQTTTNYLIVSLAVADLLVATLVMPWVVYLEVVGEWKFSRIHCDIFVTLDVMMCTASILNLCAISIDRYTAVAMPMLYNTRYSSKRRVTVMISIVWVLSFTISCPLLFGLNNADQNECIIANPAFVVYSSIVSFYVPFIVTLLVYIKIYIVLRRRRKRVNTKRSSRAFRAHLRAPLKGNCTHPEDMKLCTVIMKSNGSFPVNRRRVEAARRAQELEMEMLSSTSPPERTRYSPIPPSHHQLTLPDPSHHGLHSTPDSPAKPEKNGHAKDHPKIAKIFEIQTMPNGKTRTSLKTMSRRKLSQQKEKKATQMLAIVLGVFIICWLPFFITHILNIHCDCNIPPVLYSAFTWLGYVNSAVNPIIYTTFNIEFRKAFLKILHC

In the case of OCCOCCN1CCN(C2=Nc3ccccc3Sc3ccccc32)CC1 [Quetiapine], the “time to peak plasma level” value [1] is listed as at most 1.5 h, the D2 occupancy (D2 receptor [2]; 12 hours after receiving a dose) is listed as “less than 20%” and the D2 occupancy (D2 receptor [2]; at 2 hours) is listed as about 60%. The D2 occupancy (D2 receptor [3]; 2 to 3 hours after a single dose) was 58-62%, the D2 occupancy (D2 receptor [3]; 12 hours after the last dose) was 0-27% and the D2 occupancy (D2 receptor [4]; 2-3 hours after a dose) was 58-64%. The D2 occupancy (D2 receptor [4]; by the end of a 12-hour dosing interval) was 0-27%, the antipsychotic efficacy (Kapur et al. 2000) was “effective antipsychotic” and the response to treatment (patients with a first episode of schizophrenia, single daily dose) was “responded to treatment”.
